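All cell lines were grown in 96-well plates and treated with compound for 48 hours. GI50: concentration for 50% inhibition of growth.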 Active and inactive are the calls of the source. Rule as the data show it: active = GI50 up to about 1.1 µM and inactive = higher.
Key:
Experiment in all cases: NCI anticancer screen, dose series, 48 h
[1] = system: 786-0
[2] = system: A498
[3] = system: A549
[4] = system: ACHN
[5] = system: CAKI-1
[6] = system: CCRF-CEM
[7] = system: COLO 205
[8] = system: DLD-1
[9] = system: DMS-114
[10] = system: DMS-273
[11] = system: EKVX
[12] = system: HCC 2998
[13] = system: HCT-116
[14] = system: HCT-15
[15] = system: HL-60
[16] = system: HOP-18
[17] = system: HOP-62
[18] = system: HOP-92
[19] = system: HT-29
[20] = system: IGROV-1
[21] = system: K562
[22] = system: KM-20L2
[23] = system: KM12
[24] = system: LOX IMVI
[25] = system: LXFL 529
[26] = system: M14
[27] = system: M19-MEL
[28] = system: MDA-N
[29] = system: MOLT-4
[30] = system: Malme-3M
[31] = system: NCI-H226
[32] = system: NCI-H23
[33] = system: NCI-H460
[34] = system: NCI-H522
[35] = system: OVCAR-3
[36] = system: OVCAR-4
[37] = system: OVCAR-5
[38] = system: OVCAR-8
[39] = system: RPMI-8226
[40] = system: RXF 393
[41] = system: RXF 631
[42] = system: SF-268
[43] = system: SF-295
[44] = system: SF-539
[45] = system: SK-MEL-28
[46] = system: SK-MEL-2
[47] = system: SK-MEL-5
[48] = system: SK-OV-3
[49] = system: SN12C
[50] = system: SNB-19
[51] = system: SNB-75
[52] = system: SNB-78
[53] = system: SR
[54] = system: SW-620
[55] = system: TK-10
[56] = system: U-251
[57] = system: UACC-257
[58] = system: UACC-62
[59] = system: UO-31
[60] = system: XF498

CC(C)c1cccc(=O)c(O)c1
GI50 [1]: 3.4 µM (inactive)
GI50 [2]: 14.6 µM (inactive)
GI50 [3]: 2.83 µM (inactive)
GI50 [4]: 1.87 µM (inactive)
GI50 [5]: 1.64 µM (inactive)
GI50 [6]: 0.845 µM (active)
GI50 [7]: 1.37 µM (inactive)
GI50 [8]: 1.73 µM (inactive)
GI50 [9]: 2.24 µM (inactive)
GI50 [10]: 4 µM (inactive)
GI50 [11]: 5.78 µM (inactive)
GI50 [12]: 9.44 µM (inactive)
GI50 [13]: 1.72 µM (inactive)
GI50 [14]: 1.54 µM
GI50 [15]: 2.02 µM (inactive)
GI50 [16]: 1.4 µM (inactive)
GI50 [17]: 5.3 µM (inactive)
GI50 [18]: 1.75 µM (inactive)
GI50 [19]: 3.07 µM (inactive)
GI50 [20]: 7.8 µM (inactive)
GI50 [21]: 2.21 µM (inactive)
GI50 [22]: 2.85 µM (inactive)
GI50 [23]: 8.34 µM (inactive)
GI50 [24]: 2.42 µM (inactive)
GI50 [25]: 1.47 µM (inactive)
GI50 [26]: 2.03 µM (inactive)
GI50 [27]: 2.15 µM (inactive)
GI50 [28]: 2.18 µM (inactive)
GI50 [29]: 1.02 µM (active)
GI50 [30]: 1.35 µM (inactive)
GI50 [31]: 6.32 µM (inactive)
GI50 [32]: 2.53 µM (inactive)
GI50 [33]: 2.27 µM (inactive)
GI50 [34]: 1.39 µM (inactive)
GI50 [35]: 1.24 µM (inactive)
GI50 [36]: 2.56 µM (inactive)
GI50 [37]: 9.73 µM (inactive)
GI50 [38]: 1.72 µM (inactive)
GI50 [39]: 2.14 µM (inactive)
GI50 [40]: 0.299 µM (active)
GI50 [41]: 1.25 µM (inactive)
GI50 [42]: 1.38 µM (inactive)
GI50 [43]: 3.39 µM (inactive)
GI50 [44]: 3.21 µM (inactive)
GI50 [45]: 1.5 µM (inactive)
GI50 [46]: 5.68 µM (inactive)
GI50 [47]: 2.1 µM (inactive)
GI50 [48]: 15.8 µM (inactive)
GI50 [49]: 5.51 µM (inactive)
GI50 [50]: 7.24 µM (inactive)
GI50 [51]: 6.18 µM (inactive)
GI50 [52]: 2.1 µM (inactive)
GI50 [53]: 0.959 µM (active)
GI50 [54]: 1.79 µM (inactive)
GI50 [55]: 1.25 µM (inactive)
GI50 [56]: 0.411 µM (active)
GI50 [57]: 1.66 µM (inactive)
GI50 [58]: 2.67 µM (inactive)
GI50 [59]: 3.94 µM (inactive)

Cc1[nH]c2ccccc2c1C1Cc2ccccc2N1C(=O)/C=C\C(=O)O (centres undefined)
GI50 [1]: 38.7 µM (inactive)
GI50 [2]: 32.1 µM (inactive)
GI50 [3]: > 100 µM (inactive)
GI50 [4]: 96.4 µM (inactive)
GI50 [5]: 24.8 µM (inactive)
GI50 [6]: 31 µM (inactive)
GI50 [7]: 30.4 µM (inactive)
GI50 [8]: 64.9 µM (inactive)
GI50 [9]: 33.4 µM (inactive)
GI50 [10]: 58.2 µM (inactive)
GI50 [11]: 44.8 µM (inactive)
GI50 [12]: 45.6 µM (inactive)
GI50 [13]: 47.1 µM (inactive)
GI50 [14]: > 100 µM
GI50 [15]: 26.4 µM (inactive)
GI50 [17]: 31.3 µM (inactive)
GI50 [18]: 38.2 µM (inactive)
GI50 [19]: 66.1 µM (inactive)
GI50 [20]: 58.1 µM (inactive)
GI50 [21]: 35.6 µM (inactive)
GI50 [22]: 81.1 µM (inactive)
GI50 [23]: 32.6 µM (inactive)
GI50 [24]: 18.6 µM (inactive)
GI50 [25]: 21.6 µM (inactive)
GI50 [26]: 57.7 µM (inactive)
GI50 [27]: 34 µM (inactive)
GI50 [29]: 28.4 µM (inactive)
GI50 [30]: 73.3 µM (inactive)
GI50 [31]: 27.9 µM (inactive)
GI50 [32]: 56.4 µM (inactive)
GI50 [33]: > 100 µM (inactive)
GI50 [34]: 27.6 µM (inactive)
GI50 [35]: 55.2 µM (inactive)
GI50 [36]: > 100 µM (inactive)
GI50 [37]: > 100 µM (inactive)
GI50 [40]: 30.9 µM (inactive)
GI50 [41]: > 100 µM (inactive)
GI50 [42]: 36.3 µM (inactive)
GI50 [43]: 45.6 µM (inactive)
GI50 [44]: 28.4 µM (inactive)
GI50 [46]: 21.8 µM (inactive)
GI50 [47]: 22.6 µM (inactive)
GI50 [48]: > 100 µM (inactive)
GI50 [49]: 29.3 µM (inactive)
GI50 [50]: 23.3 µM (inactive)
GI50 [51]: 24.3 µM (inactive)
GI50 [52]: 61.8 µM (inactive)
GI50 [53]: 29.6 µM (inactive)
GI50 [54]: 32.4 µM (inactive)
GI50 [55]: 45.8 µM (inactive)
GI50 [56]: 29.5 µM (inactive)
GI50 [57]: 19 µM (inactive)
GI50 [58]: 26.2 µM (inactive)
GI50 [59]: > 100 µM (inactive)
GI50 [60]: 22.4 µM (inactive)
